Data as given in US20240148740A1, “COMBINATION OF AN AHR INHIBITOR WITH A PDX INHIBITOR OR DOXORUBICINE” (Ikena Oncology, Inc., priority 2020, published 2024).
“Also recorded” adds a separate entry of the source.

Experiments:
AHR [1] = target: T1, AHR (Mus musculus, UniProt P30561); assay: Pharmacodynamics: CYP1A1 mRNA in murine liver and spleen after VAG539; type: in vivo
T1 sequence (P30561 10-805): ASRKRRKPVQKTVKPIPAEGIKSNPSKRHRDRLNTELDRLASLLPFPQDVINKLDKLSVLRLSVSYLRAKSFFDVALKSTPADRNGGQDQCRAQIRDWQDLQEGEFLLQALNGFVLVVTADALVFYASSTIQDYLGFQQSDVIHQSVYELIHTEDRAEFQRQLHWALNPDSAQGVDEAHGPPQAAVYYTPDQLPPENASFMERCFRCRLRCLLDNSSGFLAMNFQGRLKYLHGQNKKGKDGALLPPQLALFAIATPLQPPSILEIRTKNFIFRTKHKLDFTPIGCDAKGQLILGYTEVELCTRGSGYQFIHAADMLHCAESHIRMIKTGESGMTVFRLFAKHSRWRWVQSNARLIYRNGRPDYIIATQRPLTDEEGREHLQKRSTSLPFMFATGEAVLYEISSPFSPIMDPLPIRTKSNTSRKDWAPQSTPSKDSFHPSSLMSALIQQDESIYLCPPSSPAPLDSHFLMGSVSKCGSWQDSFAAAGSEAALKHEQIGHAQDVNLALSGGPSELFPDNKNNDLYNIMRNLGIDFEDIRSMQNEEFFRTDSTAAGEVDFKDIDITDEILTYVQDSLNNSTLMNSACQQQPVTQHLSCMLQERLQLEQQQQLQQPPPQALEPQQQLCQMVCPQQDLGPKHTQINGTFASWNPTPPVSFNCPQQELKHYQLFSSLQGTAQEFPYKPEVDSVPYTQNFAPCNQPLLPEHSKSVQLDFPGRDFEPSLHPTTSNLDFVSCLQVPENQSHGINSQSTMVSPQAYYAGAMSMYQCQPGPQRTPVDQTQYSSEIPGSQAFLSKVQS

human T cells = assay: Human T cell assays (summary); type: cell-based
Description: AHR plays a key role in immune cells and its' inhibition is proposed to reverse immune suppression and activate T cells. The ability of Compound A to inhibit AHR-dependent CYP1A1 expression and cytokine production was assessed in primary human T cells. AHR directly regulates the expression of the immune suppressive cytokine IL-22. Human T cells isolated from healthy donor PBMCs were activated with CD3/CD28 tetramer and incubated for 24 hours with Compound A. Cell pellets were processed for RNA isolation and CYP1A1 analysis by quantitative reverse-transcriptase polymerase chain reaction. For the cytokine analysis assay, CD3/CD28 activated T cells were treated with Compound A, and culture supernatants were collected after 48 hours for analysis of IL-22 levels using Meso Scale Discovery V-plex IL-22 plates. Compound A inhibited AHR-dependent gene expression in activated human T cells by decreasing expression of CYP1A1 in a concentration--dependent manner.

[2] = Phase 1 study, interim cohort pharmacokinetics; type: in vivo, human
Description: Serial blood samples are obtained to characterize the plasma PK of Compound A and its major active metabolites. The initial sampling strategy is based on the predicted human PK of this compound. If in the course of evaluating the PK, it is determined that an alternative sampling scheme would be more informative, then that alternative sampling scheme can be implemented if the total amount of blood and blood draws obtained for PK is not increased. Moreover, the total number of samples can be decreased at any time if the initial sampling scheme is considered unnecessarily intensive.

[3] = Nonclinical safety studies in monkeys (incl. 28-day GLP); type: in vivo, monkey
AHR [4] = target: T2, AHR (Homo sapiens, UniProt P35869); assay: Selectivity for AHR over other receptors, transporters, and kinases
T2 sequence (P35869 11-848): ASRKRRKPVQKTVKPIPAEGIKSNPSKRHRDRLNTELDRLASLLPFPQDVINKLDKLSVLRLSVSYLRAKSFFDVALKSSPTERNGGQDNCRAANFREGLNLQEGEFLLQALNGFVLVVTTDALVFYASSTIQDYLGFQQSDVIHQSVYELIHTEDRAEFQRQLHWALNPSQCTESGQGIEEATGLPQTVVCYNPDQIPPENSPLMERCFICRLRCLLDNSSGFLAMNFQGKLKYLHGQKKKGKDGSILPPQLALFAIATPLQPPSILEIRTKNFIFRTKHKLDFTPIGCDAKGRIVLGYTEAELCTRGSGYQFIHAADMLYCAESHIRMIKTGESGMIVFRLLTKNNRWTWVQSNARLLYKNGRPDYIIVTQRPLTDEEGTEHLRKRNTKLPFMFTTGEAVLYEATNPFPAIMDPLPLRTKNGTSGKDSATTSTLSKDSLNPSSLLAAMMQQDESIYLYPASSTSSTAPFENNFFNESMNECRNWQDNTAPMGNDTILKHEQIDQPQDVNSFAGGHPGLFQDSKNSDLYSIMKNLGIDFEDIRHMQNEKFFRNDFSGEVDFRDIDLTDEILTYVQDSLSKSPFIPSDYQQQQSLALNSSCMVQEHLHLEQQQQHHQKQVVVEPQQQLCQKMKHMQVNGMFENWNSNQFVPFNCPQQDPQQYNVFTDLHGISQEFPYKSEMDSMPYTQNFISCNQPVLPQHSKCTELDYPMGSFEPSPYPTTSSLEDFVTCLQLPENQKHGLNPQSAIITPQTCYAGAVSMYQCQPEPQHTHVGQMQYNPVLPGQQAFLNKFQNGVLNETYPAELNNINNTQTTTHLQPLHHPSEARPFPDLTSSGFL

[5] = Levels of doxorubicin in plasma (UPLC); type: in vivo, mouse; settings: day 28 after cell inoculation; FIG. 7
Description: To analyze the levels of doxorubicin in plasma, blood was collected using retro-orbital vein bleeding. Plasma was generated after centrifuging blood in dipotassium EDTA tubes for 10 min at 4° C. Plasma was transferred in new tubes and stored at −80° C.
Doxorubicin levels in plasma were analyzed by UPLC.
To determine whether Compound A treatment had any effects on doxorubicin metabolism, the levels of doxorubicin in plasma were analyzed on day 28 after cell inoculation.

inhibition of CYP1A1 mRNA induction, spleen (AHR [1]; 25 mg/kg Compound A oral with VAG539, at 4 hours): complete inhibition | inhibition of CYP1A1 mRNA increases induced by VAG539, liver (AHR [1]; 25 mg/kg Compound A oral, coadministered with 30 mg/kg VAG539): Complete inhibition | dose proportionality of PK ([2]; Cycle 2 Day 1 (C2D1)): greater than dose proportional | exposure with increase in dose ([2]; interim cohort PK): Increased exposure with increase in dose | selectivity for AHR over other receptors, transporters, and kinases (AHR [4]): highly selective
SMILES: CC(C)c1cnn2c(N[C@@H]3CCc4[nH]c5ccccc5c4C3)nc(-c3cncc(F)c3)nc12 [Compound A, (R)—N-(2-(5-fluoropyridin-3-yl)-8-isopropylpyrazolo[1,5-a][1,3,5]triazin-4-yl)-2,3,4,9-tetrahydro-1H-carbazol-3-amine]
T cell state (human T cells): induces an activated T cell state | pro-inflammatory cytokines, such as IL-2 and IL-9 (human T cells): increase | noteworthy findings (monkey) ([3]; monkey): decreased thymus weights and cortical lymphocytes | QTc prolongation ([3]; monkeys): up to 11% | effect of Compound A treatment on doxorubicin drug levels in plasma / metabolism of Doxil [5]: does not affect; also recorded: did not have any effect
